Legend:
[1] = biological target: T1, NPEPPS (Homo sapiens, UniProt P55786); test: Cell-based NPEPPS activity assay (Q-AMC fluorescence); conditions: log10 transformed; EC50 = concentration that elevates 50% NPEPPS activity (150% of DMSO baseline); HEK293T cells
T1 construct: endogenous in cells; host or cells: HEK293T
Procedure: HEK293T cells (AATC) were maintained in a complete media containing DMEM (Gibco 11995-065) in the presence of 10% fetal bovine serum (FBS, Gibco 10082147), […] penicillin and 50 μg/ml streptomycin (Gibco 15140163) at 37° C. with 5% CO2. NPEPPS activity assay was conducted in a fresh-prepared minimal medium containing essential amino acids, vitamin, AlbuMax (Invitrogen 11021-029) in 1×HBS buffer. Black wall, clear bottom 384-well assay plates (Greiner EK-30092) were coated with poly-L-ornithine (0.1 mg/ml, Sigma P3655) overnight and washed once with 1×PBS. 15 μl minimal medium was then added to each well. 250 nL of compounds dissolved in OmniSolve methylsulfoxide (dimethyl sulfoxide, DMSO, Sigma MX1456P) were pinned to each well via Biomek FX^P Liquid Handling Automation (Beckman Coulter) from compound source plates, i.e., either pre-made compound libraries or JMM compounds (20-step, 2-fold dilution) dissolved in OmniSolve DMSO prepared via Biomek automation in 384-well clear V-bottom polypropylene microplates (ThermoScientific 50-823-639). Cells were harvested, resuspended in minimal medium, and seeded at 16,500 cells/15 μl/well in the 384-well assay plates. 24 hrs later, 30 μl 200 μM H-Gln-AMC hydrobromide salt (Q-AMC, Bachem #I-1175) in 1×HBS containing 0.1% DMSO was added into each well. The fluorescent signal at excitation/emission wavelengths of 360/460 nm was measured immediately upon Q-AMC addition and 3 hrs post-Q-AMC. The change in fluorescence is measured as a readout of NPEPPS activity.
To identify small molecules that either increase NPEPPS levels or NPEPPS activity, a cell-based NPEPPS activity assay amenable to high-throughput screening (HTS) by adapting a fluorescent peptidase activity assay^2 was developed. Since NPEPPS is one of the only aminopeptidases capable of cleaving glutamine-peptide bonds^3 and the major aminopeptidase responsible for degradation of poly-glutamine sequences in the brain^4, a fluorogenic compound, glutamine-7-amino-4-methylcoumarin (Q-AMC), was selected as a substrate to measure NPEPPS activity. The peptide bond of Q-AMC is hydrolyzed by NPEPPS to release glutamine and a fluorescent product, 7-amino-4-methylcoumarin (AMC), when Q-AMC is added directly to the cell culture media. This change in fluorescence is measured as a readout of aminopeptidase activity (FIG. 2A). Overexpression of NPEPPS in HEK293T cells results in a significant increase in fluorescence, whereas knock-down or chemical inhibition of NPEPPS decrease fluorescence change (FIG. 2B-D), validating that the changes in fluorescence observed in the Q-AMC-based assay directly correlate with changes in NPEPPS activity. A high-throughput (HTS) screen (201,845 compounds) was conducted at the UCLA MSSR core (FIG. 2E). Follow-up assays and chemical clustering identified three series of compounds with distinct chemical clusters (FIG. 2F).
(§1) To investigate the effects of JMM compounds that enhance NPEPPS activity and assess their cellular toxicity, 139 compounds in the JMM series (i.e., JMM001-JMM139) were tested in dose responses (20-step, 2-fold dilution) using NPEPPS activity and viability assays in HEK293T cells. 76 compounds harboring different modifications produce concentration-dependent enhancement on NPEPPS activity compared to DMSO control (FIG. 4). […] A therapeutic index (TI, a ratio of IC50 over EC50) is used to evaluate the relative safety profiles of the compounds. […] 16 JMM compounds show both improved potency and reduced toxicity (EC50<10 μM and TI>10, Table 1).

[2] = tested on: HEK293T cells; test: Cell viability assay (CellTiter Glo); format: cell-based, human; conditions: for IC50: Homo sapiens, HEK-293T, log10 transformed, IC50 = concentration that suppresses 50% cell viability, HEK293T cells; for Therapeutic index: ratio of IC50 (cell viability) over EC50 (NPEPPS activity)
Procedure: HEK293T cells (AATC) were maintained in complete media and cell viability assay was conducted in a fresh-prepared minimal medium containing essential amino acids, vitamin, AlbuMax (Invitrogen 11021-029) in 1×HBS buffer. White 384-well assay plates (Greiner EK-30080) were coated with poly-L-ornithine (0.1 mg/ml) overnight and washed once with 1×PBS. 15 μl minimal medium was then added to each well. 250 nl of compounds dissolved in OmniSolve DMSO were pinned to each well via Biomek FX^P Liquid Handling Automation from compound source plates. Cells were harvested, resuspended in minimal medium, and seeded at 16,500 cells/15 μl/well in the 384-well assay plates. 24 hrs later, 25 μl/well CellTiter Glo reagent (Promega G7572) was added into each well, and luminescence (0.5 second integration time) was acquired following manufacture's protocol. Luminescence count normalized to DMSO control is used as a readout of cell viability.
as §1

T1 sequence (P55786 whole entry): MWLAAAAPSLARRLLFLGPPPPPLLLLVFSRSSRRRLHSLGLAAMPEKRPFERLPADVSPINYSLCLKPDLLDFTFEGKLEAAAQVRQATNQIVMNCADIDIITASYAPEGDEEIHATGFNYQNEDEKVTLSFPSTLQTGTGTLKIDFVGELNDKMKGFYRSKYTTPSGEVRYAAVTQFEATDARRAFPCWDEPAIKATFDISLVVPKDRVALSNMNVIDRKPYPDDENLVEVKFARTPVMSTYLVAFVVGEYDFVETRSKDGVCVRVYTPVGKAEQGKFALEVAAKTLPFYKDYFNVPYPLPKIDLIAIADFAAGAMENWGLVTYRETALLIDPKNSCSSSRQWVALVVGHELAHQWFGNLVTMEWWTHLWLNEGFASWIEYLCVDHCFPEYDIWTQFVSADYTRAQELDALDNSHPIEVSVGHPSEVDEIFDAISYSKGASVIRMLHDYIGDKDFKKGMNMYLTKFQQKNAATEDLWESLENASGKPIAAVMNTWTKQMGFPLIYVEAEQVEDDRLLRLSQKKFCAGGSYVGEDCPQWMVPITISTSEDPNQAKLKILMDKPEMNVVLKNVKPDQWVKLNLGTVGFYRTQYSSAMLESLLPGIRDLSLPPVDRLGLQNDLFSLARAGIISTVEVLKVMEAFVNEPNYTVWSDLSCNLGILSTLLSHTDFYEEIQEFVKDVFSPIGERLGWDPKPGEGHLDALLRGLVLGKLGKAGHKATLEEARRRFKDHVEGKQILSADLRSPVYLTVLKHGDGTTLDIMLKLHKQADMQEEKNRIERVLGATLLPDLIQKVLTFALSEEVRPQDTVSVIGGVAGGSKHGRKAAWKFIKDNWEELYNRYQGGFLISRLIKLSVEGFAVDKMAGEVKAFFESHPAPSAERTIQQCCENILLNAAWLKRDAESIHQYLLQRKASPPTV

EC50 [1]	Compound	IC50 [2]	Therapeutic index [2]
4.47 µM	c1ccc(COc2ccc3snc(NCc4ccc(OCC5CCC5)cc4)c3c2)cc1 [JMM128, 5-(Benzyloxy)-N-(4-(cyclobutylmethoxy)benzyl)benzo[d]isothiazol-3-amine]	9.55 µM	2.12
37.2 µM	COc1ccc2snc(NCc3ccc(OCc4ccccc4)cc3)c2c1 [JMM094]	178 µM	4.80
28.8 µM	FC(F)(F)c1ccc(CNc2nsc3c(Br)cccc23)cc1 [JMM028]	33.9 µM	1.19
67.6 µM	FC(F)(F)c1ccc(CNc2nsc3ncccc23)cc1 [JMM059]	120 µM	1.78
6.31 µM	FC(F)(F)Sc1ccc(CNc2nsc3ccccc23)cc1 [JMM081]	66.1 µM	10.45
10.2 µM	Fc1ccc(COc2ccc(CNc3nsc4ccc(OCc5ccccc5)cc34)cc2)c(F)c1 [JMM111, 5-(Benzyloxy)-N-(4-((2,4-difluorobenzyl)oxy)benzyl)benzo[d]isothiazol-3-amine]	27.5 µM	2.74
5.5 µM	FC(F)(F)c1ccc(CN(CC2CC2)c2nsc3ccccc23)cc1 [JMM133, N-(Cyclopropylmethyl)-N-(4-(trifluoromethyl)benzyl)benzo[d]isothiazol-3-amine]	20.9 µM	3.78
46.8 µM	COc1ccc(CNc2nsc3ccc(OCc4ccccc4)cc23)cc1 [JMM099]	34.7 µM	0.74
158 µM	COC(=O)c1ccc(CNc2nsc3ccccc23)cc1 [JMM024]	437 µM	2.76
5.13 µM	c1ccc(COc2ccc3snc(NCc4ccc(OCc5cccs5)cc4)c3c2)cc1 [JMM132, 5-(Benzyloxy)-N-(4-(thiophen-2-ylmethoxy)benzyl)benzo[d]isothiazol-3-amine]	12 µM	2.36
219 µM	c1cc(CNc2nsc3ccccc23)c2cc[nH]c2c1 [JMM030]	257 µM	1.16
407 µM	COc1ccc(C(=O)Nc2nsc3ccccc23)cc1 [JMM004]	372 µM	0.90
288 µM	c1ccc2c(NCc3ccc4c(c3)OCCO4)nsc2c1 [JMM017]	204 µM	0.71
10 µM	COc1ccc(C(Nc2nsc3ccccc23)c2ccc(OC)cc2)cc1 [JMM053]	3390 µM	335.12
148 µM	c1ccc2c(NCc3ccncc3)nsc2c1 [JMM012]	126 µM	0.86
126 µM	Brc1ccc(CNc2nsc3ccccc23)cc1 [JMM016]	47.9 µM	0.38
8.51 µM	CCCCCCN(Cc1ccc(C(F)(F)F)cc1)c1nsc2ccccc12 [JMM136, N-Hexyl-N-(4-(trifluoromethyl)benzyl)benzo[d]isothiazol-3-amine]	13.5 µM	1.60
22.4 µM	Clc1ccc(CNc2nsc3ccc(OCc4ccccc4)cc23)cc1Cl [JMM090]	30.9 µM	1.39

EC50 [1]	Compound	IC50 [2]	Therapeutic index [2]
145 µM	CN(Cc1ccc(OCc2ccccc2)cc1)c1nsc2ccccc12 [JMM091]	174 µM	1.19
26.3 µM	Cc1ccccc1COc1ccc(CNc2nsc3ccc(OCc4ccccc4)cc23)cc1 [JMM114, 5-(Benzyloxy)-N-(4-((2-methylbenzyl)oxy)benzyl)benzo[d]isothiazol-3-amine]	63.1 µM	2.42
251 µM	COc1ccc(CCNc2nsc3ccccc23)cc1OC [JMM020]	120 µM	0.48
13.8 µM	FC(F)(F)c1ccc2snc(NCc3ccc(OCc4ccccc4)cc3)c2c1 [JMM134, N-(4-(Benzyloxy)benzyl)-5-(trifluoromethyl)benzo[d]isothiazol-3-amine]	257 µM	18.60
10.2 µM	FC(F)(F)Sc1ccc(CNc2nsc3ccc(OCc4ccccc4)cc23)cc1 [JMM096]	63.1 µM	6.09
7.08 µM	FC(F)(F)c1ccc(C(Nc2nsc3ccccc23)c2ccc(C(F)(F)F)cc2)cc1 [JMM051]	14.1 µM	2.03
1020 µM	COc1ccc(C(=O)Nc2nsc3ccccc23)cc1OC [JMM002]	1410 µM	1.36
34.7 µM	FC(F)(F)c1ccc(CNc2nsc3ccccc23)cc1 [JMM005]	117 µM	3.42
525 µM	COc1ccc(CNc2ncccn2)cc1OC [JMM048]	562 µM	1.09
148 µM	FC(F)c1ccc(CNc2nsc3ccccc23)cc1 [JMM063]	195 µM	1.33
7.08 µM	c1ccc(C(Nc2nsc3ccccc23)c2ccccc2)cc1 [JMM029]	324 µM	45.28
53.7 µM	FC(F)(F)c1ccc(CNc2nsc3cccnc23)cc1 [JMM060]	102 µM	1.88
5.5 µM	Clc1ccc(COc2ccc(CNc3nsc4ccc(OCc5ccccc5)cc34)cc2)cc1 [JMM112, 5-(Benzyloxy)-N-(4-((4-chlorobenzyl)oxy)benzyl)benzo[d]isothiazol-3-amine]	23.4 µM	4.29
61.7 µM	FC(F)(F)c1ccc(COc2ccc3snc(NCc4ccc(OCc5ccccc5)cc4)c3c2)cc1 [JMM131, N-(4-(Benzyloxy)benzyl)-5-((4-(trifluoromethyl)benzyl)oxy)benzo[d]isothiazol-3-amine]	355 µM	5.78
41.7 µM	COc1ccc(CNc2nsc3cccc(OC)c23)cc1OC [JMM026]	129 µM	3.05
81.3 µM	O=[N+]([O-])c1ccc(CNc2nsc3ccccc23)cc1 [JMM043]	309 µM	3.79
15.8 µM	FC(F)(F)c1ccc(COc2ccc(CNc3nsc4ccc(OCc5ccccc5)cc34)cc2)cc1 [JMM121, 5-(Benzyloxy)-N-(4-((4-(trifluoromethyl)benzyl)oxy)benzyl)benzo[d]isothiazol-3-amine]	295 µM	18.30
40.7 µM	CN(Cc1ccccc1)c1ccc(CNc2nsc3ccc(OCc4ccccc4)cc23)cc1 [JMM125, N-(4-(Benzyl(methyl)amino)benzyl)-5-(benzyloxy)benzo[d]isothiazol-3-amine]	603 µM	14.75

Reference: patent US20240174625A1, “COMPOSITIONS AND METHODS FOR TREATING TAUOPATHIES” (The Regents of the University of California, priority 2021, published 2024)
